Here are results for seven compounds from patent publication US5599808A, “Aqueous indolocarbazole solutions” (Cephalon, Inc., priority 1995, dated 1997).

Values after ≈ are worked out from the molar mass of the structure shown.

One data set in a line: physchem. The settings on record: organic solvent or mixture. The procedure: In general, a solution of the concentrate can be prepared by combining a dispersant such as polyvinylpyrrolidone C-30 and a selected organic solvent such as propylene glycol into a beaker. The mixture is continuously stirred until completely dissolved. Solid PVP or other solution components may take 1-2 hours to dissolve completely at room temperature.
An amount of an indolocarbazole, for example, staurosporine, K-252a, or any one of indolocarbazole A, B, or C (Table 1) can each be individually weighed and added to a small aliquot of the aqueous solution, resulting in a 10 mg/ml solution after the indolocarbazole completely dissolves. Alternatively, a mixture of indolocarbazoles may be combined, weighed, and added to a small aliquot of the aqueous solution resulting in a 10 mg/ml solution after the indolocarbazole completely dissolves. An indolocarbazole solution can be stirred or shaken vigorously overnight. Any undissolved indolocarbazole is removed by standard centrifugation or filtration techniques. The concentration of solubilized indolocarbazole can be determined by reversed phase HPLC using a UV detector (290 nm).
The following HPLC conditions are used to determine the concentration of an indolocarbazole:
HPLC Column: Zorbax Rx C-18 4.6×250 mm, 5 micron particle size
Prior to injection of an indolocarbazole solution, there is allowed a 10 minute equilibration time.
Fifty g of PEG-400 were added to 50 ml of water and the mixture vigorously stirred until completely dissolved. One mg of either K-252a, staurosporine or the indolocarbazoles B or C (see Table 1) were added individually to a 100 μl aliquot of the PEG-400 solution and the resulting mixture was shaken overnight. The solution was clarified by centrifugation at 1000 rpm for 10 minutes. The supernatant was saved and any residue discarded. Ten μl of the supernatant was removed, diluted with DMSO (100:1) and the concentration of dissolved K-252a determined by HPLC.
Same as example 1 except that PEG-600 was used instead of PEG-400.
Same as example 1 except that PEG-1000 was used instead of PEG-400.
Same as example 1 except that 48 ml of water was used and 2 g of benzyl alcohol was added to the PEG-400 solution.
Same as example 2 except that 48 ml of water was used and 2 g of benzyl alcohol was added to the PEG-600 solution.
Same as example 3 except that 48 ml of water was used and 2 g of benzyl alcohol was added to the PEG-1000 solution.
2.5 g of benzyl alcohol was added to 47.5 g of PEG-400 and, in a separate container, 2.5 g of Pluronic F68 was added to 47.5 ml of water. Each solution was stirred until completely dissolved, then each solution was combined and stirred until homogeneous. One mg of K-252a was added to 100 μl of the solution and the resulting mixture was shaken overnight. The solution was clarified by centrifugation at 1000 rpm for 10 minutes. Ten (10) μl of supernatant was removed, diluted with DMSO (100:1), and the concentration of dissolved K-252a determined by HPLC.
Same as example 7 except that Pluronic™ L61 was used instead of Pluronic™ F68.
Same as example 7 except that Pluronic™ L64 was used instead of Pluronic™ F68.
Same as example 7 except that Tween™ 20 was used instead of Pluronic™ F68.
Same as example 7 except that Tween™ 80 was used instead of Pluronic™ F68.
Same as example 7 except that PVP was used instead of Pluronic™ F68 and PEG-300 was used instead of PEG-400.
Same as example 12 except that PEG-400 was used instead of PEG-300 and indolocarbazoles A, B or C were each solubilized individually in addition to K-252a.
Same as example 12 except that PEG-600 was used instead of PEG-300 and indolocarbazoles A, B or C were each solubilized individually in addition to K-252
Same as example 12 except that PEG-1000 was used instead of PEG-300.
Ten (10) g of Triton X-100 was added to 38 ml of water and the mixture was stirred thoroughly.

The procedure of data set [1]:
In a flask, 10 g of PVP (k value of 17) was added to 990 grams of propylene glycol. This mixture was stirred until the PVP was completely dissolved. Two hundred fifty (250) mg of compound A (Table 1) was added to 10 ml of the above solution and the mixture was stirred until compound A was completely dissolved. This solution is called Indolocarbazole Propylene Glycol Concentrate (IPGC).
To test for the stability of an indolocarbazole in this solution, 1 ml aliquots of IPGC were removed and placed in small amber colored vials and kept at 4° C room temperature (about 25° C.), 37° C, and 60° C for 4, 7, 14 and 30 days. The sample at 4° C was kept in a refrigerator and received light when a door was opened. The sample at room temperature was placed on the laboratory bench and exposed to the fluorescent lights of the room during the day. The samples at 37° C and 60° C were kept in small incubators essentially in the dark. A 1 ml aliquot of the same IPGC was added to a clear vial and that vial was kept at 25° C in 300 foot candles of light for 4, 7, 14 and 30 days. At each interval of time, an aliquot of IPGC was removed from each vial, diluted 200 fold in DMSO and the concentration of compound A determined by reversed phase HPLC using a UV detector (290 nm).
In this example, compound A was further diluted in Indolocarbazole Diluent Solution. […]

For data set [2] the following is noted: cited from earlier work; for insolubility in water: Nakanishi et al.
The mark [3] stands for this setting: peg 400/ba/pvp/h2o, Concentration Obtained.
Where [4] appears, read: peg 600/ba/pvp/h2o, Concentration Obtained.
The mark [5] stands for this setting: peg 600/ba/pvp/h2o, Concentration Obtained (saturation level).
Where [6] appears, read: peg 1000/ba/pvp/h2o, Concentration Obtained.
Setting [7] is: 50% peg 400, 50% h2o, Concentration Obtained, Example 1: 50% PEG 400, 50% H2O, target 10 mg/ml.
The mark [8] stands for this setting: 50% peg 600, 50% h2o, Concentration Obtained, Example 2: 50% PEG 600, 50% H2O, target 10 mg/ml.
Where [9] appears, read: 50% peg 1000, 50% h2o, Concentration Obtained, Example 3: 50% PEG 1000, 50% H2O, target 10 mg/ml.
Setting [10] is: peg 400/ba/h2o, Concentration Obtained, Example 4: 50% PEG 400, 2% BA, 48% H2O, target 10 mg/ml.
Setting [11] is: peg 600/ba/h2o, Concentration Obtained, Example 5: 50% PEG 600, 2% BA, 48% H2O, target 10 mg/ml.
[12] abbreviates: peg 600/ba/pvp/h2o, Concentration Obtained (saturation level), Example 22: 50% PEG 600, 2% BA, 10% PVP, 38% H2O, 10 mg added.
Where [13] appears, read: peg 1000/ba/h2o, Concentration Obtained, Example 6: 50% PEG 1000, 2% BA, 48% H2O, target 10 mg/ml.

As to `COC1(CO)CC2OC1(C)n1c3ccccc3c3c4c(c5c6ccccc6n2c5c31)C(=O)NC4` (centres unmarked) [Compound A], the solubility (thermodynamic) was 10000 µg/mL (≈ 22.1 mM) in the data set “physchem” (setting [3]), 10000 µg/mL (≈ 22.1 mM) in “physchem” (setting [4]), 40000 µg/mL (≈ 88.2 mM) in the data set “physchem” (setting [5]) and 10000 µg/mL (≈ 22.1 mM) in “physchem” (setting [6]). Further, the “Stability of Compound A in IPGC” value in data set [1] (0 min) is 100%. Further, the “loss of activity in IPGC” value in data set [1] (propylene glycol with pvp, 720 h) came out at 13.3%.

On to `COC(=O)C1(O)CC2OC1(C)n1c3ccccc3c3c4c(c5c6cc(O)ccc6n2c5c31)C(=O)NC4` (centres unmarked) [Compound B], for which the solubility (thermodynamic) in the data set “physchem” (setting [7]) is 3150 µg/mL (≈ 6.52 mM); in the data set “physchem” (setting [8]), 2680 µg/mL (≈ 5.54 mM); in the data set “physchem” (setting [9]), 4440 µg/mL (≈ 9.18 mM); in “physchem” (setting [10]), 3260 µg/mL (≈ 6.74 mM); in the data set “physchem” (peg 400/ba/pvp/h2o, Concentration Obtained, Example 13: 47.5% PEG 400, 2.5% BA, 2.5% PVP, 47.5% H2O, target 10 mg/ml), 10000 µg/mL (≈ 20.7 mM); in the data set “physchem” (setting [11]) it was 3590 µg/mL (≈ 7.43 mM). Further, the thermodynamic solubility in “physchem” (peg 600/ba/pvp/h2o, Concentration Obtained (saturation level), Example 20: 47.5% PEG 600, 2.5% BA, 2.5% PVP, 47.5% H2O, 10 mg added) came to 10000 µg/mL (≈ 20.7 mM); in the data set “physchem” (setting [12]), 16400 µg/mL (≈ 33.9 mM); in the data set “physchem” (peg 600/ba/pvp/h2o, Concentration Obtained, Example 14: 47.5% PEG 600, 2.5% BA, 2.5% PVP, 47.5% H2O, target 10 mg/ml) it was 10000 µg/mL (≈ 20.7 mM); in “physchem” (setting [13]), 5020 µg/mL (≈ 10.4 mM); in the data set “physchem” (peg 1000/ba/pvp/h2o, Concentration Obtained, Example 19: 40% PEG 1000, 2% BA, 10% PVP, 48% H2O, target 10 mg/ml) it was 10000 µg/mL (≈ 20.7 mM).

Regarding `CC[S+]([O-])Cc1ccc2c(c1)c1c3c(c4c5ccccc5n5c4c1n2C1CC(O)(C(=O)OC)C5(C)O1)CNC3=O` (centres unmarked) [Compound C], the thermodynamic solubility came out at 750 µg/mL (≈ 1.34 mM) in “physchem” (50% peg 400, 50% h2o, Concentration Obtained); 500 µg/mL (≈ 0.897 mM) in the data set “physchem” (50% peg 600, 50% h2o, Concentration Obtained); 720 µg/mL (≈ 1.29 mM) in “physchem” (50% peg 1000, 50% h2o, Concentration Obtained); 1010 µg/mL (≈ 1.81 mM) in the data set “physchem” (peg 400/ba/h2o, Concentration Obtained); 4000 µg/mL (≈ 7.17 mM) in “physchem” (setting [3]); 890 µg/mL (≈ 1.6 mM) in the data set “physchem” (peg 600/ba/h2o, Concentration Obtained). Also, the solubility (thermodynamic) in “physchem” (setting [4]) was 4600 µg/mL (≈ 8.25 mM); in the data set “physchem” (setting [5]) it was 4600 µg/mL (≈ 8.25 mM); in “physchem” (peg 600/ba/triton x-100/h2o, Concentration Obtained) it was 4630 µg/mL (≈ 8.3 mM); in the data set “physchem” (peg 600/ba/tween 80/h2o, Concentration Obtained) it was 4790 µg/mL (≈ 8.59 mM); in “physchem” (peg 1000/ba/h2o, Concentration Obtained) it was 800 µg/mL (≈ 1.43 mM); in the data set “physchem” (setting [6]) it was 6000 µg/mL (≈ 10.8 mM). Besides, the solubility (thermodynamic) in the data set “physchem” (peg 1000/ba/pvp/h2o, Concentration Obtained (saturation level)) came to 5000 µg/mL (≈ 8.97 mM).

Regarding `CC12OC(CC1(O)C(=O)O)n1c3ccccc3c3c4c(c5c6ccccc6n2c5c31)CNC4=O` (centres unmarked) [Compound K-252b], the “solubility in non-aqueous, toxic solvents” value (“solubility in non-aqueous” below) in data set [2] is “soluble in non-aqueous, toxic solvents”.

As to `O=C1NCc2c1c1c3ccccc3[nH]c1c1[nH]c3ccccc3c21` [Compound K-252c], in data set [2], the insolubility in water result was “insolubility”; the “solubility in non-aqueous” value is recorded as “soluble in non-aqueous, toxic solvents”; the solubility in water result was “insoluble in water”.

In the case of `C[C@@H]1O[C@@H](n2c3ccccc3c3c4c(c5c6ccccc6[nH]c5c32)CNC4=O)[C@H](O)[C@H](O)[C@H]1O` [Compound K-252d], in data set [2], the insolubility in water entry is “insolubility”; the “solubility in non-aqueous” value is on record as “soluble in non-aqueous, toxic solvents”; the solubility in water entry is reported as “insoluble in water”.

With `CN[C@@H]1C[C@H]2O[C@@](C)([C@@H]1OC)n1c3ccccc3c3c4c(c5c6ccccc6n2c5c31)C(=O)NC4` [Staurosporine, staurosporine], the solubility (thermodynamic) in the data set “physchem” (setting [7]) came to 710 µg/mL (≈ 1.52 mM); in the data set “physchem” (setting [8]) it was 1890 µg/mL (≈ 4.05 mM); in the data set “physchem” (setting [9]), 1650 µg/mL (≈ 3.54 mM); in the data set “physchem” (setting [10]) it was 1210 µg/mL (≈ 2.59 mM); in the data set “physchem” (setting [11]) it was 1890 µg/mL (≈ 4.05 mM); in the data set “physchem” (setting [12]) it was 8400 µg/mL (≈ 18 mM). In addition, the solubility (thermodynamic) in the data set “physchem” (peg 600/ba/pvp/h2o, Concentration Obtained, Example 18: 50% PEG 600, 2% BA, 10% PVP, 38% H2O, target 10 mg/ml) was determined as 8410 µg/mL (≈ 18 mM); in “physchem” (peg 600/ba/triton x-100/h2o, Concentration Obtained, Example 16: 50% PEG 600, 2% BA, 10% Triton X-100, 38% H2O, target 10 mg/ml), 7590 µg/mL (≈ 16.3 mM); in “physchem” (peg 600/ba/tween 80/h2o, Concentration Obtained, Example 17: 50% PEG 600, 2% BA, 10% Tween 80, 38% H2O, target 10 mg/ml), 4600 µg/mL (≈ 9.86 mM); in “physchem” (setting [13]), 1680 µg/mL (≈ 3.6 mM).
